The record followed here is patent US10233189B2 (priority 2015, dated 2019).

This data set in a line: Evaluation of stability in hepatic microsome. It counts as in vitro ADME. As to conditions: mouse hepatic microsome 0.25 mg/mL, 1 μM compound, 37° C., 30 minutes, NADPH-generating system.

For `Cc1ccc(-c2nn(C(C)(C)C)c3ncnc(N)c23)cc1` [Compound 4 of Comparative Examples, 1-(tert-butyl)-3-(p-tolyl)pyrazolo[3,4-d]pyrimidin-4-amine], the “percentage of the remaining tested compounds (remaining %)” value amounted to 0%.
